These results are taken from patent publication US20250340591A1, “COMPOSITION FOR PREVENTING OR TREATING INFLAMMATORY BOWEL DISEASE CONTAINING NOVEL COMPOUND” (ANYGEN CO., LTD., priority 2021, published 2025).

For this data set, the target named is T1, GPR39 (Homo sapiens, UniProt O43194).
T1 sequence (O43194 1-453): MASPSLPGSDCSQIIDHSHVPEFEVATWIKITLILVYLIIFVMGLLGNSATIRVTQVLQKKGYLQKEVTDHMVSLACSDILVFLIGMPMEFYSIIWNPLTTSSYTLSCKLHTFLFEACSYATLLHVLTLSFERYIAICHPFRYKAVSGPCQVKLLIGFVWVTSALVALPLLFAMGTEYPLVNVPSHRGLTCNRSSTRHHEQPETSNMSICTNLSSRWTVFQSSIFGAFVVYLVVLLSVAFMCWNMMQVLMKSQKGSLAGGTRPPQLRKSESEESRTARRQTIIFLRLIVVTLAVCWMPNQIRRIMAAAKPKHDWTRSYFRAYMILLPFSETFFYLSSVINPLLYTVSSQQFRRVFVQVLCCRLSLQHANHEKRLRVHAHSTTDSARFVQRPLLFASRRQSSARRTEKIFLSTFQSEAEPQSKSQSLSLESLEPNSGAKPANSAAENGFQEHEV
Briefly: luciferase assay system (SRE luciferase reporter gene, CV-1 cells expressing GPR39). It is filed as cell-based. Also noted: expressed in transfected cells; host or cells: CV-1 fibroblast cell line (Korea Cell Line Bank), adenoviral transduction at 50 MOI. On the technique in general: In a reporter assay the amount or activity of a reporter protein is the signal.

The mark [1] stands for this setting: CV-1 cells, GPR39 and SRE luciferase adenovirus, 6 hours treatment.

Like-named read-outs stand apart in the source and are kept apart here. Square brackets hold non-standard residues; d marks the D form. Ends that are not written are not given here. Peptide text beside a SMILES is read from it. * marks the point of attachment. His(τ-CHPh2) = N[C@@H](Cc1cn(C(c2ccccc2)c2ccccc2)cn1)C(=O)O; dPhe(4-Me) = Cc1ccc(C[C@@H](N)C(=O)O)cc1; Dmt = Cc1cc(O)cc(C)c1C[C@H](N)C(=O)O; Octanoyl = CCCCCCCC(=O)*; Boc = CC(C)(C)OC(=O)*

Take `CCCCCCCC(=O)NCCCC[C@H](NC(=O)[C@H](Cc1c[nH]c2ccccc12)NC(=O)OC(C)(C)C)C(=O)N[C@H](Cc1ccc(C)cc1)C(=O)N[C@@H](Cc1ccc(O)cc1)C(=O)O` [HKFY-78, ((R)-2-((S)-2-((S)-2-((tert-butoxycarbonyl)amino)-3-(1H-indol-3-yl)propanamido)-6-octanamidohexanamido)-3-(p-tolyl)propanoyl)-L-tyrosine] (Boc-WK(Octanoyl)[dPhe(4-Me)]Y-OH): the “ECmax (−fold induction over basal)” value was found to be 11.4 ± 1.54 fold induction over basal.
In the case of `CCCCCCCC(=O)NCCCC[C@H](NC(=O)[C@@H](N)Cc1cn(C(c2ccccc2)c2ccccc2)cn1)C(=O)N[C@H](Cc1ccc(C)cc1)C(=O)N[C@@H](Cc1c(C)cc(O)cc1C)C(=O)O` [HKFY-36, (S)-2-((R)-2-((S)-2-((S)-2-amino-3-(1-benzhydryl-1H-imidazol-4-yl)propanamido)-6-octanamidohexanamido)-3-(p-tolyl)propanamido)-3-(4-hydroxy-2,6-dimethylphenyl)propanoic acid] (H-[His(τ-CHPh2)]K(Octanoyl)[dPhe(4-Me)][Dmt]-OH), the “ECmax (−fold induction over basal)” value under setting [1] is 9.9 ± 0.28 fold induction over basal.
Turning to `CCCCCCCC(=O)NCCCC[C@H](NC(=O)[C@@H](N)Cc1cn(CCc2ccccc2)cn1)C(=O)N[C@@H](Cc1ccccc1)C(=O)N[C@@H](Cc1ccc(O)cc1)C(=O)O` [HKFY-9, N6-octanoyl-N2-(Nt-phenethyl-L-histidyl)-L-lysyl-L-phenylalanyl-L-tyrosine], the “ECmax (−fold induction over basal)” value came out at 21 ± 2.52 fold induction over basal.
On to “N2-(Nt-(naphthalen-1-ylmethyl)-L-histidyl)-N6-octanoyl-L-lysyl-L-phenylalanyl-L-tyrosine (H(naphthalen‑1‑ylmethyl)K(Octanoyl)FY-OH) [HKFY-10]”, for which the “ECmax (−fold induction over basal)” value came to 14 ± 2.12 fold induction over basal. Moreover, the concentration for a half-maximal effect (EC50) (as a rule, the midpoint of the concentration-response curve) under setting [1] is 46.5 ± 1.1 µM.
Take `CCCCCCCC(=O)NCCCC[C@H](NC(=O)[C@@H](N)Cc1cn(C(c2ccccc2)c2ccc(OC)cc2)cn1)C(=O)N[C@@H](Cc1ccccc1)C(=O)N[C@@H](Cc1ccc(O)cc1)C(=O)O` (stereo partly drawn) [HKFY-20, N2-(Nt-((4-methoxyphenyl)(phenyl)methyl)-L-histidyl)-N6-octanoyl-L-lysyl-L-phenylalanyl-L-tyrosine]: the “ECmax (−fold induction over basal)” value turned out to be 20.26 ± 2.7 fold induction over basal.
On the same count and under the same terms, the value for `CCCCCCCC(=O)NCCCC[C@H](NC(=O)[C@@H](N)Cc1c[nH]c(-c2ccccc2)n1)C(=O)N[C@H](Cc1ccc(C)cc1)C(=O)N[C@@H](Cc1ccc(O)cc1)C(=O)O` [HKFY-57, ((R)-2-((S)-2-((S)-2-amino-3-(2-phenyl-1H-imidazol-4-yl)propanamido)-6-octanamidohexanamido)-3-(p-tolyl)propanoyl)-L-tyrosine] was 8.5 ± 2.3 fold induction over basal; that for `CCCCCCCC(=O)NCCCC[C@H](NC(=O)[C@@H](N)Cc1cn(CCC(c2ccccc2)c2ccccc2)cn1)C(=O)N[C@@H](Cc1ccccc1)C(=O)N[C@@H](Cc1ccc(O)cc1)C(=O)O` [HKFY-17] was 20 ± 0.57 fold induction over basal.
